The record followed here is article PMC10818380, “Triphenylphosphonium Analogs of Short Peptide Related to Bactenecin 7 and Oncocin 112 as Antimicrobial Agents” (Pharmaceutics, 2024).

Assay [1] deals with bacterial translation (E. coli S30 extract). Put plainly: In vitro translation inhibition of firefly luciferase mRNA, E. coli S30 extract. In kind it is biochemical. The following applies: 30 µM. The method, then:
Briefly, in vitro-transcribed firefly luciferase mRNA (fluc) was translated using the E. coli S30 Extract System for Linear Templates (Promega, Madison, WI, USA). Reaction mixtures (with a 5 μL total volume) supplemented with 0.1 mM of a mixture of all canonical amino acids, 4 U of RiboLock RNase Inhibitor (Thermo Fisher Scientific, Waltham, MA, USA), and 0.1 mM of D-luciferin (Sigma-Aldrich, Burlington, MA, USA) were pre-incubated at RT for 5 min after the addition of the tested compounds at a final concentration of 30 µM. Then, 50 ng of the mRNA was added to each reaction tube, and the mixtures were immediately subjected to continuous chemiluminescence measurements using the VICTOR X5 Multilabel Plate Reader (PerkinElmer, Waltham, MA, USA) at 37 °C for 30 min. The maximal rates of the firefly luciferase (Fluc) accumulation were calculated using the OriginPro 7.5 software. The values were normalized to a positive control (0.3% DMSO, assigned a value of 100%).

The test system of the next assay is 70S E. coli ribosome. The experiment in a line: Competition-binding assay, displacement of BODIPY-Bac(1–10), fluorescence anisotropy. The conditions noted are these: read-out: apparent dissociation constant (KD). As for the experimental part: 70S ribosomes were isolated from E. coli MRE600 cells according to a published procedure. The binding of BODIPY-Bac(1–10) to 70S E. coli ribosomes was performed according to the following procedure. BODIPY-Bac(1–10) (16 nM) was incubated with ribosomes (from 0.5 nM to 2000 nM) for 2 h at 26 °C in a buffer containing 20 mM of HEPES-KOH (pH 7.5), 50 mM of NH4Cl, 10 mM of Mg(CH3COO)2, 4 mM of β-mercaptoethanol, and 0.05% Tween-20. The binding affinities of peptides 1 and 2, their TPP analogs 3–5, as well as the control compounds for the E. coli ribosome were analyzed via a competition-binding assay using fluorescently labeled BODIPY-Bac(1–10) or BODIPY-ERY, as described before in [38, 54]. The fluorescent compound (16 nM) was mixed with ribosomes (84 nM for BODIPY-Bac(1–10) and 46 nM for BODIPY-ERY) in the buffer. Solutions of the tested compounds were added to the obtained complexes to final concentrations ranging from 0.01 to 100 µM. The mixtures were incubated for 2 h at 26 °C, and then the values of fluorescence anisotropy were measured with a VICTOR X5 Multilabel Plate Reader (PerkinElmer, Waltham, MA, USA) using a 384-well plate. The excitation wavelength was 485 nm, and the emission wavelength was 535 nm. From the data obtained, apparent dissociation constants were calculated.
In general terms: Polarisation of emitted light reports the rotation of a fluorescent probe.

Assay [2] has as its system E. coli JW5503 (∆tolC) (KanS) pDualrep2. Put plainly: pDualrep2 double-reporter agar plate test. The conditions noted are these: 1 µL of 10 mM solution on agar plate. In kind it is cell-based. The method, then: The “pDualrep2” system was used to evaluate the mechanism of the antimicrobial action of the synthesized compounds. This system is based on the hypersensitive strain E. coli JW5503 (∆tolC) (KanS) transformed with the “pDualrep2” plasmid, which allows one to sort out suppressors of protein synthesis or SOS response inducers. Briefly, 1 µL of 10 mM water solutions of Bac(1–10), Bac(1–10, R/Y), Bac(1–10, R/Y)-Cn-TPP, TPP-C10-Bac(1–10, R/Y), and Onc112 were applied onto the agar plate that already contained a layer of the reporter strain E. coli JW5503 (∆tolC) (KanS) pDualrep2, and then the plate was incubated overnight at 37 °C. The agar plate was scanned using the ChemiDoc^TM Imaging System (Bio-Rad Laboratories, Hercules, CA, USA), containing two channels, “Cy3-blot” (553/574 nm; green pseudocolor) for Turbo Red Fluorescent Protein (TurboRFP) detection and “Cy5-blot” (588/633 nm; red pseudocolor) for Katushka2S fluorescence. […] Levofloxacin (LEV; 50 μg/mL, 1 μL) and erythromycin (ERY; 5 mg/mL, 1 μL) were utilized as positive controls for DNA and protein synthesis inhibitors, respectively.

A further assay has as its system A549. Put plainly: cells. The method, then:
(§1) The cytotoxicity of the substances under study was tested using the MTT (3-(4,5-dimethylthiazol-2-yl)-2,5-diphenyltetrazolium bromide) assay with some modifications. The detailed procedure for the MTT assay is given in the Supplementary Materials (Section S5).
(§2) Two thousand five hundred cells per well for the MCF7, HEK293T, and A549 cell lines or 4000 cells per well for the VA13 cell line were plated in 135 µL of DMEM-F12 media with 10% FBS (both Gibco, Waltham, MA, USA) in a 96-well plate and were incubated in a 5% CO2 incubator for the first 16 h, without treatment. Then 15 µL of media-DMSO solutions of the tested substances were added to the cells (the final DMSO concentrations in the media were 1% or less), and the cells were treated for 72 h with 25 nM–50 µM (eight dilutions) of the tested substances (triplicate each). Serial dilutions of DMSO and doxorubicin were used as controls. The MTT reagent (Paneco LLC, Moscow, Russia) was then added to the cells at a final concentration of 0.5 g/L (10× stock solution in PBS was used) and incubated for 2.5 h at 37 °C in the incubator under an atmosphere of 5%
(§3) CO2. The MTT solution was then discarded, and 140 µL of DMSO (PharmaMed LLC, Krasnodar, Russia) was added. The plates were swayed on a shaker (60 rpm) to dissolve the formazan. The absorbance was measured using the VICTOR X5 Multilabel Plate Reader (PerkinElmer, Wa l th a m, MA, USA) at a wavelength of 565 nm (in order to measure formazan concentration). The resu l ts were used to construct a dose-response graph and to estimate IC50 values.
(§4) Figure S11.The dependencies of viability of cells after treatment by tested compounds.
(§5) (1 picture or pasted object on this page, not shown here)

The test system of the next assay is HEK293T. Put plainly: cells. In kind it is cell-based, human. The following applies: 72 h. As for the experimental part: as §1, §2, §3, §4, §5
A further assay has as its system MCF7. Put plainly: cells. In kind it is cell-based, human. As for the experimental part:
as §1, §2, §3, §4, §5

A further assay relates to VA13. Put plainly: cells. In kind it is cell-based, human. The method, then: as §1, §2, §3, §4, §5
[3] abbreviates: read-out: IC50 (50% inhibition of viability of cells), A549, 72 h, MTT.
Setting [4] is: HEK293T, MTT, read-out: IC50 (50% inhibition of viability of cells).
Setting [5] is: MCF7, 72 h, MTT, read-out: IC50 (50% inhibition of viability of cells).
Setting [6] is: VA13, 72 h, MTT, read-out: IC50 (50% inhibition of viability of cells).

The IC50 is the point on the concentration scale where inhibition reaches its midpoint.

Where two headings read alike, the source gives them in different places. Square brackets hold non-standard residues; d marks the D form. Peptide text beside a SMILES is read from it. * marks the point of attachment. X2 = c1ccc([P+](CCCCCCCCCCN*)(c2ccccc2)c2ccccc2)cc1; X1 = c1ccc([P+](CCN*)(c2ccccc2)c2ccccc2)cc1

Consider `CC[C@H](C)[C@H](NC(=O)[C@H](CCCNC(=N)N)NC(=O)[C@@H](N)CCCNC(=N)N)C(=O)N[C@@H](CCCNC(=N)N)C(=O)N1CCC[C@H]1C(=O)N[C@@H](CCCNC(=N)N)C(=O)N1CCC[C@H]1C(=O)N1CCC[C@H]1C(=O)N[C@@H](Cc1ccc(O)cc1)C(=O)N[C@@H](CC(C)C)C(=O)NCC[P+](c1ccccc1)(c1ccccc1)c1ccccc1` [Compound 3, Bac(1–10, R/Y)-C2-TPP] (H-RRIRPRPPYL-X1; N-terminus assumed), for which, in assay [1], the “inhibition of bacterial translation of firefly luciferase (Fluc) mRNA” value (from here on “inhibition … (Fluc) mRNA”) is on record as “almost completely”. Also, the Kd in the assay with 70S E. coli ribosome (CI (α = 0.05)) was 0.26 ± 0.03 µM. In addition, the “inhibitory effect on growth of bacterial cells” value in assay [2] is “demonstrated an inhibitory effect on the growth of bacterial cells”. For the same compound, the “reporter induction (Katushka2S red pseudocolor = protein synthesis inhibition)” value in assay [2] is recorded as “red pseudocolor reporter induction was observed”. Moreover, the IC50 in the assay with A549 (setting [3]) is above 50 µM; with HEK293T (setting [4]), above 50 µM; with MCF7 (setting [5]), above 20 µM; in the assay on VA13 (setting [6]), above 50 µM.
On to `CC[C@H](C)[C@H](NC(=O)[C@H](CCCNC(=N)N)NC(=O)[C@@H](N)CCCNC(=N)N)C(=O)N[C@@H](CCCNC(=N)N)C(=O)N1CCC[C@H]1C(=O)N[C@@H](CCCNC(=N)N)C(=O)N1CCC[C@H]1C(=O)N1CCC[C@H]1C(=O)N[C@@H](Cc1ccc(O)cc1)C(=O)N[C@@H](CC(C)C)C(=O)NCCCCCCCCCC[P+](c1ccccc1)(c1ccccc1)c1ccccc1` [Compound 4, Bac(1–10, R/Y)-C10-TPP] (H-RRIRPRPPYL-X2; N-terminus assumed), for which the “inhibition … (Fluc) mRNA” value in assay [1] was “almost completely”. In addition, in the assay on 70S E. coli ribosome (CI (α = 0.05)), the Kd worked out at 0.25 ± 0.04 µM. Moreover, the “inhibitory effect on growth of bacterial cells” value in assay [2] was “demonstrated an inhibitory effect on the growth of bacterial cells”. Also, the “reporter induction (Katushka2S red pseudocolor = protein synthesis inhibition)” value in assay [2] is given as “red pseudocolor reporter induction was observed”. The IC50 in the assay on A549 (setting [3]) is 9.2 ± 0.9 µM; with HEK293T (setting [4]), 3.1 ± 0.5 µM; in the assay with MCF7 (setting [5]) it was 10 ± 1 µM; in the assay on VA13 (setting [6]), 12 ± 1 µM.
Take `CC[C@H](C)[C@H](NC(=O)[C@@H](CCCNC(=N)N)NC(=O)[C@H](CCCNC(=N)N)NC(=O)[C@@H]1CCCN1C(=O)[C@@H]1CCCN1C(=O)[C@H](CCCNC(=N)N)NC(=O)[C@@H]1CCCN1C(=O)[C@H](CCCNC(=N)N)NC(=O)[C@@H]1CCCN1C(=O)[C@H](CC(C)C)NC(=O)[C@H](Cc1ccc(O)cc1)NC(=O)[C@@H]1CCCN1C(=O)[C@@H]1CCCN1C(=O)[C@H](CCCCN)NC(=O)[C@H](CC(=O)O)NC(=O)[C@@H](N)C(C)C)C(=O)N[C@@H](Cc1ccc(O)cc1)C(=O)N[C@@H](CC(N)=O)C(=O)N[C@H](CCCNC(=N)N)C(N)=O` [Onc112, reference compound] (H-VDKPPYLPRPRPPR[dR]IYN[dR]-NH2; N-terminus assumed): the “inhibition … (Fluc) mRNA” value in assay [1] is on record as “almost completely”. In addition, the Kd in the assay with 70S E. coli ribosome (Figure S3B) was determined as 0.003 ± 0.001 µM. Also, the “reporter induction (Katushka2S red pseudocolor = protein synthesis inhibition)” value in assay [2] is listed as “red pseudocolor reporter induction was observed”. The IC50 in the assay with A549 (72 h) was above 50 µM; in the assay with HEK293T it was above 50 µM; with MCF7 (72 h), above 20 µM; in the assay with VA13 (72 h), above 50 µM.
